Source: patent US8952024B2, “Herbicidal pyrimidone derivatives” (E I du Pont de Nemours and Company, priority 2009, dated 2015)

Legend:
Assay in all cases: Test D pre-/postemergence plant response
Type in all cases: in vivo
[1] = test system: purslane (common purslane, Portulaca oleracea)
Description: (§1) Seeds of plant species selected from bermudagrass (Cynodon dactylon), Surinam grass (Brachiaria decumbens), large crabgrass (Digitaria sanguinalis), green foxtail (Setaria viridis), goosegrass (Eleusine indica), johnsongrass (Sorghum halepense), kochia (Kochia scoparia), morningglory (pitted morningglory, Ipomoea lacunosa), nutsedge (purple nutsedge, Cyperus rotundus), ragweed (common ragweed, Ambrosia elatior), black mustard (Brassica nigra), guineagrass (Panicum maximum), dallisgrass (Paspalum dilatatum), barnyardgrass (Echinochloa crus-galli), sandbur (southern sandbur, Cenchrus echinatus), sowthistle (common sowthistle, Sonchus oleraceous), prickly sida (Sida spinosa), Italian ryegrass (Lolium multiflorum), purslane (common purslane, Portulaca oleracea), signalgrass (broadleaf signalgrass, Brachiaria platyphylla), groundsel (common groundsel, Senecio vulgaris), chickweed (common chickweed, Stellaria media), dayflower (Virginia (VA) dayflower, Commelina virginica), bluegrass (annual bluegrass, Poa annua), naked crabgrass (Digitaria nuda), itchgrass (Rottboellia cochinchinensis), quackgrass (Elytrigia repens), field bindweed (Convolvulus arvensis), spanishneedles (Bidens bipinnata), mallow (common mallow, Malva sylvestris) and Russian thistle (Salsola kali), were planted into a blend of loam soil and sand and treated preemergence with test chemicals formulated in a non-phytotoxic solvent mixture which included a surfactant. At the same time, plants from these weed species were treated with postemergence applications of the test chemicals formulated in the same manner. Plants ranged in height from 2 to 18 cm (1- to 4-leaf stage) for postemergence treatments.
(§2) Treated plants and controls were maintained in a greenhouse for 14 to 21 days, after which time all species were visually evaluated and compared to controls. Plant response ratings, summarized in Table D, are based on a scale of 0 to 100 where 0 is no effect and 100 is complete control. A dash (-) response means no test result.

[2] = test system: groundsel (common groundsel, Senecio vulgaris); settings: Postemergence
Description: as §1, §2

[3] = test system: sowthistle (common sowthistle, Sonchus oleraceous)
Description: as §1, §2

[4] = test system: prickly sida (Sida spinosa)
Description: as §1, §2

[5] = test system: nutsedge (purple nutsedge, Cyperus rotundus)
Description: as §1, §2

[6] = test system: dayflower (Virginia (VA) dayflower, Commelina virginica)
Description: as §1, §2

[7] = test system: itchgrass (Rottboellia cochinchinensis)
Description: as §1, §2

[8] = test system: black mustard (Brassica nigra)
Description: as §1, §2

[9] = test system: Italian ryegrass (Lolium multiflorum)
Description: as §1, §2

[10] = test system: field bindweed (Convolvulus arvensis)
Description: as §1, §2

[11] = Postemergence, 16 g ai/ha, scale 0 to 100
[12] = Postemergence, 31 g ai/ha, scale 0 to 100
[13] = Postemergence, 125 g ai/ha, scale 0 to 100 (0 no effect, 100 complete control)
[14] = Postemergence, 62 g ai/ha, scale 0 to 100 (0 no effect, 100 complete control)
[15] = Preemergence, 16 g ai/ha, scale 0 to 100, 0 no effect, 100 complete control
[16] = Preemergence, 31 g ai/ha, scale 0 to 100 (0 no effect, 100 complete control)
[17] = Preemergence, 62 g ai/ha, scale 0 to 100
[18] = Preemergence, 125 g ai/ha, scale 0 to 100

Cc1c(F)cccc1-n1c(-c2ccccc2)ncc(C(=O)C2=C(O)CCCC2=O)c1=O [Compound 47, 3-(3-fluoro-2-methylphenyl)-5-[(2-hydroxy-6-oxo-1-cyclohexen-1-yl)carbonyl]-2-phenyl-4(3H)-pyrimidinone]
30: Plant response rating, Purslane [1, 13] | Plant response rating, Purslane [1, 14] | Plant response rating, Dayflower, VA [6, 13] | Plant response rating, Ryegrass, Italian [9, 13]
80: Plant response rating, Prickly Sida [4, 14] | Plant response rating, Black Mustard [8, 17]
0: Plant response rating, Purslane [1, 15] | Plant response rating, Purslane [1, 16] | Plant response rating, Prickly Sida [4, 15] | Plant response rating, Nutsedge, Purple [5, 11] | Plant response rating, Nutsedge, Purple [5, 12] | Plant response rating, Nutsedge, Purple [5, 15] | Plant response rating, Nutsedge, Purple [5, 16] | Plant response rating, Itchgrass [7, 11] | Plant response rating, Itchgrass [7, 15] | Plant response rating, Itchgrass [7, 16] | Plant response rating, Itchgrass [7, 17] | Plant response rating, Itchgrass [7, 18] | Plant response rating, Black Mustard [8, 15] | Plant response rating, Ryegrass, Italian [9, 11] | Plant response rating, Ryegrass, Italian [9, 15] | Plant response rating, Ryegrass, Italian [9, 16] | Plant response rating, Ryegrass, Italian [9, 18] | Plant response rating, Ryegrass, Italian ([9]; Preemergence, rate not given, scale 0 to 100, 0 no effect, 100 complete control) | Plant response rating, Field Bindweed [10, 15] | Plant response rating, Field Bindweed [10, 16] | Plant response rating, Field Bindweed [10, 17]
90: Plant response rating, Sowthistle [3, 11] | Plant response rating, Prickly Sida [4, 13]
60: Plant response rating, Prickly Sida [4, 11]
35: Plant response rating, Nutsedge, Purple [5, 18] | Plant response rating, Dayflower, VA [6, 15] | Plant response rating, Dayflower, VA [6, 16] | Plant response rating, Field Bindweed [10, 11] | Plant response rating, Field Bindweed [10, 18]
40: Plant response rating, Field Bindweed [10, 12]
100: Plant response rating, Purslane [1, 18] | Plant response rating, Groundsel ([2]; 16 g ai/ha, scale 0 to 100) | Plant response rating, Groundsel ([2]; 31 g ai/ha, scale 0 to 100) | Plant response rating, Groundsel ([2]; 125 g ai/ha, scale 0 to 100 (0 no effect, 100 complete control)) | Plant response rating, Groundsel ([2]; 62 g ai/ha, scale 0 to 100 (0 no effect, 100 complete control)) | Plant response rating, Sowthistle [3, 12] | Plant response rating, Sowthistle [3, 13] | Plant response rating, Sowthistle [3, 14] | Plant response rating, Sowthistle [3, 18] | Plant response rating, Prickly Sida [4, 18] | Plant response rating, Black Mustard ([8]; Postemergence, 31 g ai/ha, scale 0 to 100 (0 no effect, 100 complete control)) | Plant response rating, Black Mustard [8, 13] | Plant response rating, Black Mustard [8, 14] | Plant response rating, Black Mustard [8, 18]
10: Plant response rating, Nutsedge, Purple [5, 14] | Plant response rating, Nutsedge, Purple [5, 17] | Plant response rating, Dayflower, VA [6, 11] | Plant response rating, Itchgrass [7, 13] | Plant response rating, Ryegrass, Italian [9, 12]
5: Plant response rating, Itchgrass [7, 12] | Plant response rating, Itchgrass [7, 14]
65: Plant response rating, Sowthistle [3, 15] | Plant response rating, Sowthistle [3, 16] | Plant response rating, Prickly Sida [4, 17] | Plant response rating, Black Mustard [8, 16] | Plant response rating, Field Bindweed [10, 13]
20: Plant response rating, Purslane [1, 11] | Plant response rating, Purslane [1, 12] | Plant response rating, Nutsedge, Purple [5, 13] | Plant response rating, Dayflower, VA [6, 14] | Plant response rating, Ryegrass, Italian [9, 14]
95: Plant response rating, Purslane [1, 17] | Plant response rating, Black Mustard [8, 11]
70: Plant response rating, Prickly Sida [4, 12]
15: Plant response rating, Dayflower, VA [6, 12]
50: Plant response rating, Prickly Sida [4, 16] | Plant response rating, Dayflower, VA [6, 17] | Plant response rating, Dayflower, VA [6, 18] | Plant response rating, Field Bindweed [10, 14]
